Data from a melting point compilation (Tetko et al.).

| SMILES | melting point |
| --- | --- |
| CSc1nc2ncnc(Cl)c2s1 | 149 to 151 °C |
| Nc1ncn(Cc2ccncc2)n1 | 156 to 158 °C |
| NC(=O)Nc1ccc([N+](=O)[O-])cc1 | 224 to 226 °C |
| C=CCC(NC(C)=O)C(=O)O (stereo unspecified) | 114 to 116 °C |
| O=C(O)CCN1C(=O)COc2cc(Br)ccc21 | 153 to 155 °C |
| O=Cc1nc(-c2cc(Cl)ccc2Cl)cs1 | 112 to 114 °C |
| Cc1ccc(Oc2ccc(C#N)cc2)cc1 | 69 to 71 °C |
| Nc1cnccc1CO | 112 to 114 °C |
| Oc1cccc(Oc2ncccn2)c1 | 192 to 194 °C |
| CN1CCN(c2ccc(C(F)(F)F)cc2N)CC1 | 178 to 180 °C |
| OCCNc1cccnn1 | 77 to 79 °C |
| O=[N+]([O-])c1c[nH]nc1-c1ccncc1 | 216 to 218 °C |
| O=C(O)C=Cc1cncc(O)c1 | 243 to 245 °C |
| CCc1nnn[nH]1 | 93 to 95 °C |
| NNc1ncnc2cc(-c3ccc(F)cc3)sc12 | 237 to 239 °C |
| CCOC(=O)c1sc2ncnc(Cl)c2c1C | 113 to 115 °C |

| SMILES | melting point |
| --- | --- |
| O=C(/C=C/c1ccc2c(c1)CCO2)N1CCCC(CO)C1 (stereo unspecified) | 131 to 133 °C |
| O=C(O)Cn1cc(C2CC2)nn1 | 183 to 185 °C |
| CC12CSCC(=O)N1C(C(=O)O)CS2 (stereo unspecified) | 202 to 204 °C |
| Cc1ccc(S(=O)(=O)N(C)Cc2ccc(C(=O)NN)cc2)cc1 | 66 to 68 °C |
| Cc1c(-c2cccnc2)noc1N | 177 to 179 °C |
| NC(=S)CCc1ccccc1 | 82 to 84 °C |
| C=CC(=O)ON=C(N)c1ccc(Cl)cc1 | 120 to 122 °C |
| CN(C)C(=O)c1ccc(Cl)c(N)c1 | 76 to 78 °C |
| COc1cc(C#N)ccc1OCC(=O)O | 154 to 156 °C |
| COc1cccc(NCC(=O)NN)c1 | 108 to 112 °C |
| CC(C)C(Br)C(=O)N1CCCCC1 (stereo unspecified) | 61 to 63 °C |
| NC(=O)NCC1CCCNC1 (stereo unspecified) | 83 to 85 °C |
| O=C(O)/C=C/c1cc(Cl)c2c(c1)OCCCO2 | 178 to 180 °C |
| COCCOc1ccc(Cl)cc1S(=O)(=O)Cl | 38 to 40 °C |
| CC(C)(C)OC(=O)Nc1cccc(O)c1 | 135 to 137 °C |
| CCC(=O)c1ccc(OC)c(OC)c1 | 61 to 63 °C |

More lines, now with the values ahead:

| melting point | SMILES |
| --- | --- |
| 197 to 199 °C | COc1ccccc1NS(=O)(=O)c1cc(N)ccc1N1CCOCC1 |
| 297 to 299 °C | O=C(O)c1cc(=O)c2cc(Br)ccc2[nH]1 |
| 177 to 179 °C | Cc1ccc2ncc(C(=O)O)n2c1 |
| 79 to 81 °C | O=C(O)CSc1cccc(Br)c1 |
| 217 to 219 °C | CC(=O)Nc1ccc2nc(N)sc2c1 |
| 195 to 197 °C | Cc1ccc(NS(C)(=O)=O)c(C(=O)O)c1 |
| 249 to 251 °C | O=C(O)c1cccnc1-n1cnc2ccccc21 |
| 195 to 205 °C | CC(C)c1ccc(S(=O)(=O)NCCC(=O)O)cc1 |
| 336 to 338 °C | Cc1ccc(C(=O)O)cc1NC(=O)NC(C)(C)C |
| 144 to 146 °C | CC(=O)CN1C(=O)c2ccccc2S1(=O)=O |
| 226 to 228 °C | Cc1nc2nccc(C(=O)O)n2n1 |
| 172 to 174 °C | COc1ccccc1C(=O)Nc1ccc(O)cc1 |
| 163 to 165 °C | Cc1nn(-c2ccc(F)cc2F)c(C)c1CC(=O)O |
| 115 to 117 °C | CN(C)c1nc(C=O)c(Cl)n1-c1ccc(Br)cc1 |
| 191 to 193 °C | Cc1ccc2c(C)cc(NN)nc2c1C |
| 230 to 232 °C | O=C(O)C(NCc1ccccc1)c1ccc(C(F)(F)F)cc1 (stereo unspecified) |
| 224 to 226 °C | O=C(O)C=Cc1ccc(S(=O)(=O)Nc2cccc(C(F)(F)F)c2)cc1 |
| 227 to 229 °C | Cc1ccc(-n2nc(C(=O)O)c3ccccc3c2=O)cc1Cl |
| 54 to 56 °C | CC(C(=O)O)c1ccc(Br)cc1 (stereo unspecified) |
| 87 to 89 °C | O=[N+]([O-])C=Cc1cccc2ccccc12 |
| 222 to 224 °C | Cc1cc(=O)[nH]c(-c2ccc(N)cc2)n1 |
| 217 to 219 °C | Cc1nc(-c2ccccc2Cl)sc1C(=O)O |
| 249 to 251 °C | Cc1csc2ncc(C(=O)O)c(=O)n12 |
| 202 to 204 °C | O=C(O)C=Cc1ccc(Oc2cccnc2)c(F)c1 |
